Data on 27 compounds can be found in patent US8791123B2, “Substituted pyrazolo[1,5-a]pyrimidine compounds as Trk kinase inhibitors” (Array Biopharma, Inc., priority 2009, dated 2014).

Read-outs that look alike come from different tables or passages of the source.

Broadly, the IC50 is the concentration that inhibits the measured activity by half.

One experiment concerns the target Human Jak2 kinase domain (Homo sapiens (Human), UniProt O60674). Kind of experiment: Jak2 Inhibition Assay (Omnia kinase assay). In kind it is biochemical. Conditions: read-out: Jak2 Enzyme IC50.
Experiment [1] addresses TrkA (histidine-tagged recombinant human TrkA, cytoplasmic domain) (Homo sapiens (Human), UniProt P04629). Kind of experiment: TrkA ELISA Assay. Conditions: Table 1; ELISA, 500 μM ATP; read-out: TrkA Enzyme IC50. In kind it is biochemical. The method in brief: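 His-tagged human TrkA cytoplasmic domain phosphorylated poly(Glu,Ala,Tyr 6:3:1) coated at 0.025 mg/mL, with inhibitors present. Phosphotyrosine was detected with HRP-conjugated PY20 antibody (0.2 μg/mL) and TMB, read as absorbance at 450 nm after phosphoric acid stop.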
On the technique in general: In an ELISA, binding on a coated surface is turned into a signal by an enzyme label.

The mark [2] stands for this setting: Table 1, 500 μM ATP, >1000 nM when >50% inhibition not observed at 1000 nM.

Human Jak2 kinase domain, sequence (O60674 808-1132): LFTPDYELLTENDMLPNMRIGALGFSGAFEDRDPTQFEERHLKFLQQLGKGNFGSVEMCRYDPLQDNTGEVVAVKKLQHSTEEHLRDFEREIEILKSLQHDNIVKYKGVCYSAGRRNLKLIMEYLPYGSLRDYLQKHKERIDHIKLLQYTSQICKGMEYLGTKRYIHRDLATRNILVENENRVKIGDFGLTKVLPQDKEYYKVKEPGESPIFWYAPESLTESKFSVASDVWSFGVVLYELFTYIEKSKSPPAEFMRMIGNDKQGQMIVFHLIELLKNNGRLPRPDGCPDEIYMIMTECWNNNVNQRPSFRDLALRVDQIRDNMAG
TrkA (histidine-tagged recombinant human TrkA, cytoplasmic domain), sequence (P04629 440-796): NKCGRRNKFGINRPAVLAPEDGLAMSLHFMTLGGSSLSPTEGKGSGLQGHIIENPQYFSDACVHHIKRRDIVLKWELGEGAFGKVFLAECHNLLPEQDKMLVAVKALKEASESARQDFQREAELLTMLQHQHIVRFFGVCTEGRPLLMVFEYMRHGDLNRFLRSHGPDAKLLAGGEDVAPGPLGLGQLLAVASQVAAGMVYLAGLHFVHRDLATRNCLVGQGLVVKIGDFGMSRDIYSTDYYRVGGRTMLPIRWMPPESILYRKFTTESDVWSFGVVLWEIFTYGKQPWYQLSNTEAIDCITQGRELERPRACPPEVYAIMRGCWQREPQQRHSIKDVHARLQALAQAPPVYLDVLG

Turning to `Cn1cc(F)cc([C@H]2CCCN2c2ccn3ncc(C(=O)NC4(C)CC4)c3n2)c1=O` [Example 237, (R)-5-(2-(5-fluoro-1-methyl-2-oxo-1,2-dihydropyridin-3-yl)pyrrolidin-1-yl)-N-(1-methylcyclopropyl)pyrazolo[1,5-a]pyrimidine-3-carboxamide], the figures for the IC50 (at Human Jak2 kinase domain (setting [2]); in experiment [1]) were 616 nM and 2.1 nM, respectively.

Take `COc1ncc(F)cc1[C@H]1CCCN1c1ccn2ncc(C(=O)NC(CO)CO)c2n1` [Example 160, (R)-N-(1,3-dihydroxypropan-2-yl)-5-(2-(5-fluoro-2-methoxypyridin-3-yl)pyrrolidin-1-yl)pyrazolo[1,5-a]pyrimidine-3-carboxamide]: the IC50 was greater than 1000 nM on Human Jak2 kinase domain (setting [2]) and 25.6 nM in experiment [1].

As to `Cn1cc(F)cc([C@H]2CCCN2c2ccn3ncc(C(=O)NC4CCC4)c3n2)c1=O` [Example 230, (R)-N-cyclobutyl-5-(2-(5-fluoro-1-methyl-2-oxo-1,2-dihydropyridin-3-yl)pyrrolidin-1-yl)pyrazolo[1,5-a]pyrimidine-3-carboxamide], the values for the IC50 (on Human Jak2 kinase domain (setting [2]); in experiment [1]) were 666 nM and 3 nM, respectively.

For the compound `Cc1ncc(F)cc1[C@H]1CCCN1c1ccn2ncc(C(=O)N[C@H]3CC[C@H](O)C3)c2n1` [Example 196, 5-((R)-2-(5-fluoro-2-methylpyridin-3-yl)pyrrolidin-1-yl)-N-((1S,3S)-3-hydroxycyclopentyl)pyrazolo[1,5-a]pyrimidine-3-carboxamide], the IC50 at Human Jak2 kinase domain (setting [2]) was greater than 1000 nM; in experiment [1], 6.8 nM.

Consider `C[C@@H](O)CNC(=O)c1cnn2ccc(N3CCC[C@@H]3c3cncc(F)c3)nc12` [Example 110, 5-((R)-2-(5-fluoropyridin-3-yl)pyrrolidin-1-yl)-N-((R)-2-hydroxypropyl)pyrazolo[1,5-a]pyrimidine-3-carboxamide], for which the IC50 at Human Jak2 kinase domain (setting [2]) was greater than 1000 nM; in experiment [1], 37.2 nM.

In the case of `O=C(c1cnn2ccc(N3CCC[C@@H]3c3cncc(F)c3)nc12)N1CCC1` [Example 126, (R)-azetidin-1-yl(5-(2-(5-fluoropyridin-3-yl)pyrrolidin-1-yl)pyrazolo[1,5-a]pyrimidin-3-yl)methanone], the IC50 at Human Jak2 kinase domain (setting [2]) is greater than 1000 nM; in experiment [1], 218 nM.

As for `O=C(N[C@@H]1CCC[C@@H]1O)c1cnn2ccc(N3CCC[C@@H]3c3cncc(F)c3)nc12` [Example 135, 5-((R)-2-(5-fluoropyridin-3-yl)pyrrolidin-1-yl)-N-((1R,2S)-2-hydroxycyclopentyl)pyrazolo[1,5-a]pyrimidine-3-carboxamide], the IC50 was greater than 1000 nM at Human Jak2 kinase domain (setting [2]) and 142 nM in experiment [1].

Take `O=C(NOCC1CC1)c1cnn2ccc(N3CCC[C@@H]3c3cc(F)ccc3F)nc12` [Example 66, (R)—N-(cyclopropylmethoxy)-5-(2-(2,5-difluorophenyl)pyrrolidin-1-yl)pyrazolo[1,5-a]pyrimidine-3-carboxamide]: the IC50 at Human Jak2 kinase domain (setting [2]) was greater than 1000 nM; in experiment [1], 0.57 nM.

`CNC(=O)c1cnn2ccc(N3CCC[C@@H]3c3cc(F)ccc3F)nc12` [Example 10, (R)-5-(2-(2,5-difluorophenyl)pyrrolidin-1-yl)-N-methylpyrazolo[1,5-a]pyrimidine-3-carboxamide]: the IC50 on Human Jak2 kinase domain (setting [2]) was greater than 1000 nM; in experiment [1], 1.05 nM.

Consider `C[C@@H](NC(=O)c1cnn2ccc(N3CCC[C@@H]3c3cncc(F)c3)nc12)C(F)(F)F` [Example 129, 5-((R)-2-(5-fluoropyridin-3-yl)pyrrolidin-1-yl)-N-((R)-1,1,1-trifluoropropan-2-yl)pyrazolo[1,5-a]pyrimidine-3-carboxamide], for which the IC50 at Human Jak2 kinase domain (setting [2]) was greater than 1000 nM; in experiment [1], 8 nM.

Take `O=C(N[C@@H]1C2CC[C@@H](C2)[C@@H]1CO)c1cnn2ccc(N3CCC[C@@H]3c3cncc(F)c3)nc12` [Example 138, 5-((R)-2-(5-fluoropyridin-3-yl)pyrrolidin-1-yl)-N-((2R,3S,4S)-3-(hydroxymethyl)bicyclo[2.2.1]heptan-2-yl)pyrazolo[1,5-a]pyrimidine-3-carboxamide]: the IC50 on Human Jak2 kinase domain (setting [2]) was greater than 1000 nM; in experiment [1], 34.8 nM.

As to `O=C(NC1CCOCC1)c1cnn2ccc(N3CCC[C@@H]3c3cc(F)ccc3F)nc12` [Example 20, (R)-5-(2-(2,5-difluorophenyl)pyrrolidin-1-yl)-N-(tetrahydro-2H-pyran-4-yl)pyrazolo[1,5-a]pyrimidine-3-carboxamide], the IC50 worked out at 257 nM at Human Jak2 kinase domain (setting [2]) and 0.6 nM in experiment [1].

Consider `CC(C)NC(=O)c1cnn2ccc(N3CCC[C@@H]3c3cc(F)cn(C)c3=O)nc12` [Example 227, (R)-5-(2-(5-fluoro-1-methyl-2-oxo-1,2-dihydropyridin-3-yl)pyrrolidin-1-yl)-N-isopropylpyrazolo[1,5-a]pyrimidine-3-carboxamide], for which the IC50 on Human Jak2 kinase domain (setting [2]) amounted to 446 nM; in experiment [1], 12.3 nM.

In the case of `CC1(C)OCC(COc2cc(F)cc([C@H]3CCCN3c3ccn4ncc(C(=O)NC5CC5)c4n3)c2)O1` (stereo partly drawn) [Example 206, N-cyclopropyl-5-((2R)-2-(3-((2,2-dimethyl-1,3-dioxolan-4-yl)methoxy)-5-fluorophenyl)pyrrolidin-1-yl)pyrazolo[1,5-a]pyrimidine-3-carboxamide], the IC50 at Human Jak2 kinase domain (setting [2]) is greater than 1000 nM; in experiment [1], 3.9 nM.

As to `Cc1ncc(F)cc1[C@H]1CCCN1c1ccn2ncc(C(=O)NC3(CO)CC3)c2n1` [Example 193, (R)-5-(2-(5-fluoro-2-methylpyridin-3-yl)pyrrolidin-1-yl)-N-(1-(hydroxymethyl)cyclopropyl)pyrazolo[1,5-a]pyrimidine-3-carboxamide], the IC50 on Human Jak2 kinase domain (setting [2]) is greater than 1000 nM; in experiment [1] it was 15.6 nM.

`CC(C)NC(=O)c1cnn2ccc(N3[C@H](CO)CC[C@@H]3c3cncc(F)c3)nc12` [Example 215, 5-((2R,5S)-2-(5-fluoropyridin-3-yl)-5-(hydroxymethyl)pyrrolidin-1-yl)-N-isopropylpyrazolo[1,5-a]pyrimidine-3-carboxamide]: the IC50 on Human Jak2 kinase domain (setting [2]) was greater than 1000 nM; in experiment [1], 15.3 nM.

`O=C(NCC(F)(F)F)c1cnn2ccc(N3CCC[C@@H]3c3cncc(F)c3)nc12` [Example 131, (R)-5-(2-(5-fluoropyridin-3-yl)pyrrolidin-1-yl)-N-(2,2,2-trifluoroethyl)pyrazolo[1,5-a]pyrimidine-3-carboxamide]: the IC50 at Human Jak2 kinase domain (setting [2]) was greater than 1000 nM; in experiment [1], 5 nM.

As for `CONC(=O)c1cnn2ccc(N3CCC[C@@H]3c3cc(F)cnc3OC)nc12` [Example 83, (R)-5-(2-(5-fluoro-2-methoxypyridin-3-yl)pyrrolidin-1-yl)-N-methoxypyrazolo[1,5-a]pyrimidine-3-carboxamide], the IC50 at Human Jak2 kinase domain is greater than 1000 nM; in experiment [1] it was 1.77 nM.

Regarding `CC(C)[C@@H](CO)NC(=O)c1cnn2ccc(N3CCC[C@@H]3c3cncc(F)c3)nc12` [Example 121, 5-((R)-2-(5-fluoropyridin-3-yl)pyrrolidin-1-yl)-N-((S)-1-hydroxy-3-methylbutan-2-yl)pyrazolo[1,5-a]pyrimidine-3-carboxamide], the results for the IC50 (at Human Jak2 kinase domain (setting [2]); in experiment [1]) were greater than 1000 nM and 182 nM, respectively.

With `CONC(=O)c1cnn2ccc(N3CCC[C@@H]3c3cccc(F)c3)nc12` [Example 75], the IC50 at Human Jak2 kinase domain (setting [2]) was greater than 1000 nM; in experiment [1] it was 6.95 nM.

Turning to `NS(=O)(=O)CCNC(=O)c1cnn2ccc(N3CCC[C@@H]3c3cc(F)ccc3F)nc12` [Example 47, (R)-5-(2-(2,5-difluorophenyl)pyrrolidin-1-yl)-N-(2-sulfamoylethyl)pyrazolo[1,5-a]pyrimidine-3-carboxamide], the IC50 on Human Jak2 kinase domain is greater than 1000 nM; in experiment [1] it was 1.5 nM.

Turning to `CC1(NC(=O)c2cnn3ccc(N4[C@H](CO)CC[C@@H]4c4cncc(F)c4)nc23)CC1` [Example 214, 5-((2R,5S)-2-(5-fluoropyridin-3-yl)-5-(hydroxymethyl)pyrrolidin-1-yl)-N-(1-methylcyclopropyl)pyrazolo[1,5-a]pyrimidine-3-carboxamide], the IC50 is greater than 1000 nM on Human Jak2 kinase domain (setting [2]) and 8.6 nM in experiment [1].

Turning to `CC(C)(C)NC(=O)c1cnn2ccc(N3C[C@H](O)C[C@@H]3c3cccc(F)c3)nc12` [Example 42, N-tert-butyl-5-((2R,4R)-2-(3-fluorophenyl)-4-hydroxypyrrolidin-1-yl)pyrazolo[1,5-a]pyrimidine-3-carboxamide], the IC50 on Human Jak2 kinase domain (setting [2]) is greater than 1000 nM; in experiment [1], 48.3 nM.

As for `C[C@H](NC(=O)c1cnn2ccc(N3CCC[C@@H]3c3cncc(F)c3)nc12)C(F)(F)F` [Example 130, 5-((R)-2-(5-fluoropyridin-3-yl)pyrrolidin-1-yl)-N-((S)-1,1,1-trifluoropropan-2-yl)pyrazolo[1,5-a]pyrimidine-3-carboxamide], the IC50 at Human Jak2 kinase domain (setting [2]) was greater than 1000 nM; in experiment [1], 1.7 nM.

Turning to `CC[C@@H](CO)NC(=O)c1cnn2ccc(N3CCC[C@@H]3c3cc(F)ccc3F)nc12` [Example 178, 5-((R)-2-(2,5-difluorophenyl)pyrrolidin-1-yl)-N-((S)-1-hydroxybutan-2-yl)pyrazolo[1,5-a]pyrimidine-3-carboxamide], the figures for the concentration for half-maximal inhibition (IC50) (at Human Jak2 kinase domain (setting [2]); in experiment [1]) were greater than 1000 nM and 2.5 nM, respectively.

Consider `O=C(N[C@H]1CCC[C@@H]1O)c1cnn2ccc(N3CCC[C@@H]3c3cncc(F)c3)nc12` [Example 103, 5-((R)-2-(5-fluoropyridin-3-yl)pyrrolidin-1-yl)-N-((1S,2S)-2-hydroxycyclopentyl)pyrazolo[1,5-a]pyrimidine-3-carboxamide], for which the figures for the IC50 (at Human Jak2 kinase domain (setting [2]); in experiment [1]) were greater than 1000 nM and 87.8 nM, respectively.

For `CC(C)(C)NC(=O)c1cnn2ccc(N3CCC[C@@H]3c3cncc(F)c3)nc12` [Example 53, (R)—N-tert-butyl-5-(2-(5-fluoropyridin-3-yl)pyrrolidin-1-yl)pyrazolo[1,5-a]pyrimidine-3-carboxamide], the IC50 is greater than 1000 nM at Human Jak2 kinase domain (setting [2]) and 10.4 nM in experiment [1].
